The conditions of data set [1]: as indicated by the Hampton Kit; cited from earlier work.
The next data set relates to PRV. Format: cell-based, pseudorabies herpes virus.
Data set [2] has as its system xMuLV. The data set can be described thus: Kinetic study of detergents, TCID50 LRV in host cell culture fluid matrices. Format: cell-based, xenotropic murine leukemia virus. Conditions: for Clearance of xMuLV within 30 minutes: 15° C.
Another data set deals with MMV. The data set is described as follows: Concentration study, lowest concentration to inactivate virus. Format: cell-based, mouse minute virus.
Data set [3] has as its system xMuLV. The data set can be described thus: Temperature-dependent study, TCID50 LRV in host cell culture fluid matrices. Format: cell-based, xenotropic murine leukemia virus. The following applies: for Inactivation towards xMuLV at any temperature tested: in product matrices; for average LRV: process temperature of 15° C., average over modalities.
Data set [4] deals with xMuLV. The data set can be described thus: Concentration study, lowest concentration to inactivate virus. Format: cell-based, xenotropic murine leukemia virus. The following applies: 15° C., 30-minute incubation.
For data set [5], the system named is xMuLV. Format: cell-based, xenotropic murine leukemia virus. Conditions: initial screen, 10× CMC or 10% w/v, 30 minutes, 15° C., 5% virus spike, PG4 cells.
Data set [6] in a line: Turbidity of detergent spiked HCCF. Format: physicochemical. The following applies: HCCF spiked at five times CMC, room temperature 5 days and 2-8° C. 7 days. As to the method:
Determination of turbidity was used to measure the stability of detergent spiked samples. Increased turbidity of the sample would reflect a precipitation of the protein molecule. 100 mL of harvested cell culture fluid (HCCF) collected from cultures of each molecule were subjected to four conditions: HCCF containing no detergent (control), APO128, APO129 and Triton X-100. The detergents were spiked at five times the detergent's critical micelle concentration (CMC) values, Triton-X: […] Two sample sets were generated for each molecule; one set was kept at room temperature for 5 days. The second set was kept at 2-8° C. for 7 days. The turbidity of each sample was measured using a turbidimeter (Hach Turbidime[…] 46500-00, Loveland, CO) on days 0, 1, 2, 5, and 7.

Values joined by “and” are separate entries in the source; they are usually repeats but may differ in a detail not shown here. Identical values can stand only once. Where only a bound is given, the exact number is not on record here.

Consider `OC[C@H]1O[C@H](O[C@H]2[C@H](O)[C@@H](O)[C@H](OCCCCCC3CCCCC3)O[C@@H]2CO)[C@H](O)[C@@H](O)[C@@H]1O` [CYMAL ®-5, 5-cyclohexylpentyl-β-D-maltoside], for which, in data set [1], the CMC is recorded as 5 mM. Further, the “Cytopathic effects (CPE) at 2.5×CMC” value with PRV, in the data set on MMV and in the data set with xMuLV [4] was “showed cytopathic effects (CPE)” each time. In the data set on xMuLV [2], the “Clearance of xMuLV within 30 minutes” value is “did not lead to robust clearance”. Besides, the “LRV 30 s” value in the data set with xMuLV [2] (BiTE ® #1, 15° C.) was 0.19 ± 0.69; with xMuLV [2] (fusion protein #1, 15° C.), −0.06 ± 0.69; with xMuLV [2] (mAb #1, 15° C.), 0.25 ± 0.58. The “LRV 10 min” value with xMuLV [2] (BiTE ® #1, 15° C.) is 0.06 ± 0.58; in the data set with xMuLV [2] (fusion protein #1, 15° C.) it was 0.31 ± 0.52; in the data set on xMuLV [2] (mAb #1, 15° C.), 0.12 ± 0.58. Besides, the “LRV 30 min” value with xMuLV [2] (BiTE ® #1, 15° C.) is listed as −0.06 ± 0.69; with xMuLV [2] (fusion protein #1, 15° C.), 0.62 ± 0.48; in the data set with xMuLV [2] (mAb #1, 15° C.), 0.62 ± 0.50. Besides, the “LRV BiTE ®” value is −0.06 ± 0.69 with xMuLV [3] (15° C., 30 minutes, 5× CMC) and 1.19 ± 0.29 in the data set on xMuLV [3] (22° C., 30 minutes, 5× CMC). The LRV fusion protein with xMuLV [3] (15° C., 30 minutes, 5× CMC) was 0.62 ± 0.48; with xMuLV [3] (22° C., 30 minutes, 5× CMC), 1.01 ± 0.45. Further, the “LRV mAb” value is reported as 0.62 ± 0.50 with xMuLV [3] (15° C., 30 minutes, 5× CMC) and 1.94 ± 0.52 in the data set with xMuLV [3] (22° C., 30 minutes, 5× CMC). The “increase in LRV at higher temperature (22° C.)” value in the data set on xMuLV [3] (22° C. versus 15° C.) is listed as around 1 log. The “Inactivation towards xMuLV at any temperature tested” value with xMuLV [3] is listed as “did not yield significant inactivation”. In addition, the “average LRV” value with xMuLV [3] is 0.39.

For `CCCCCCCCCCCCCOCCOCCOCCOCCOCCOCCOCCOCCO` [Anapoe C13E8], in the data set with xMuLV [5], the “Viral inactivation towards xMuLV (CPE)” value is given as “did not”.

For the compound `CCCCCCCCCCOCCOCCOCCOCCOCCOCCO` [Anapoe C10E6], in the data set with xMuLV [5], the “Viral inactivation towards xMuLV (CPE)” value is given as “did not”.

As to “polyoxyethylene octyl phenol ether [Triton X-100, reference compound]”, in the data set with xMuLV [3] (Triton X-100 control, 7° C., 800-sample large volume plate (1 LRV increase), Run 1 and Run 2), the LRV fusion protein is 5.03 ± 0.58 and 5.04 ± 0.57. In addition, the “Precipitation of protein modalities (turbidity)” value in data set [6] is “none of the detergents tested caused precipitation”.

Turning to `O=C(CCCCC1CCCCC1)N(CCO)CC(O)C(O)C(O)C(O)CO` (stereo not drawn) [C-HEGA ®-11], the CMC in data set [1] is listed as 11.5 mM.

For the compound `CCCCCCCCOCCOCCOCCOCCO` [Detergent C8E4], in data set [1], the CMC was 8 mM.

Consider `CCCCCCCCCCOP(=O)([O-])OCC[N+](C)(C)C` [Fos-Choline ®-10, n-decylphosphocholine], for which the CMC in data set [1] is 11 mM. For the same compound, in the data set with PRV, the “Cytopathic effects (CPE) at 2.5×CMC” value is given as “showed cytopathic effects (CPE)”. The “Clearance of xMuLV within 30 minutes” value with xMuLV [2] is on record as “did not lead to robust clearance”. In the data set with xMuLV [2] (BiTE ® #1, 15° C.), the “LRV 30 s” value amounted to 0.69 ± 0.44, the “LRV 10 min” value was 1.57 ± 0.47 and the “LRV 30 min” value was 3.92 ± 0.67. In addition, in the data set with xMuLV [2] (fusion protein #1, 15° C.), the “LRV 30 s” value was 0.82 ± 0.57, the “LRV 10 min” value came to 1.82 ± 0.51 and the “LRV 30 min” value turned out to be 3.51 ± 0.43. Besides, in the data set on xMuLV [2] (mAb #1, 15° C.), the “LRV 30 s” value was 0.69 ± 0.31, the “LRV 10 min” value turned out to be 1.61 ± 0.56 and the “LRV 30 min” value was found to be 3.97 ± 0.90. In addition, the “Cytopathic effects (CPE) at 2.5×CMC” value with MMV is listed as “showed cytopathic effects (CPE)”. Also, in the data set with xMuLV [3] (5° C., 30 minutes, 5× CMC), the “LRV BiTE ®” value is given as 2.09 ± 0.31, the LRV fusion protein is reported as 1.76 ± 0.41 and the “LRV mAb” value is 2.54 ± 0.34. Further, in the data set with xMuLV [3] (15° C., 30 minutes, 5× CMC), the “LRV BiTE ®” value came out at 3.92 ± 0.67, the LRV fusion protein is 3.51 ± 0.43 and the “LRV mAb” value turned out to be 3.97 ± 0.90. Moreover, in the data set on xMuLV [3], the “Inactivation towards xMuLV at any temperature tested” value is listed as “did not yield significant inactivation” and the “average LRV” value is listed as 3.8. For the same compound, in the data set with xMuLV [4], the “Cytopathic effects (CPE) at 2.5×CMC” value is reported as “showed cytopathic effects (CPE)”.

Regarding `CCCCCCCCCCCC[N+](C)(C)CCCC(=O)[O-]` [DDMAB], in data set [1], the CMC is on record as 4.3 mM.

Take `CCCCCCCCOCCOCCOCCOCCOCCOCCO` [Hexaethylene glycol monooctyl ether]: in data set [1], the CMC is 10 mM.

For `CCCCCCCS[C@@H]1O[C@H](CO)[C@@H](O)[C@H](O)[C@H]1O` [N-heptyl-β-D-thioglucopyranoside, Heptyl-β-D-1-thioglucopyranoside], the CMC in data set [1] is on record as 29 mM. Moreover, the “Cytopathic effects (CPE) at 2.5×CMC” value in the data set with PRV, in the data set with MMV and in the data set on xMuLV [4] was “showed cytopathic effects (CPE)” each time. Also, the “LRV 30 s” value in the data set on xMuLV [2] (BiTE ® #1, 15° C.) is given as at least 3.03 ± 0.18; with xMuLV [2] (fusion protein #1, 15° C.) it was at least 3.16 ± 0.42; with xMuLV [2] (mAb #1, 15° C.), at least 3.22 ± 0.41. Moreover, the “LRV 10 min” value in the data set on xMuLV [2] (BiTE ® #1, 15° C.) is at least 3.03 ± 0.18; in the data set on xMuLV [2] (fusion protein #1, 15° C.), at least 3.16 ± 0.42; with xMuLV [2] (mAb #1, 15° C.), at least 3.22 ± 0.41. Besides, the “LRV 30 min” value with xMuLV [2] (BiTE ® #1, 15° C.) is at least 3.03 ± 0.18; with xMuLV [2] (fusion protein #1, 15° C.) it was at least 3.16 ± 0.42; with xMuLV [2] (mAb #1, 15° C.), at least 3.22 ± 0.41. Also, the “LRV BiTE ®” value is at least 4.23 ± 0.33 in the data set on xMuLV [3] (5° C., 30 minutes, 5× CMC) and at least 4.03 ± 0.18 in the data set on xMuLV [3] (15° C., 30 minutes, 5× CMC). Besides, the LRV fusion protein is reported as at least 4.07 ± 0.30 in the data set with xMuLV [3] (5° C., 30 minutes, 5× CMC) and at least 4.16 ± 0.42 in the data set with xMuLV [3] (15° C., 30 minutes, 5× CMC). For the same compound, the “LRV mAb” value is recorded as at least 4.09 ± 0.25 in the data set on xMuLV [3] (5° C., 30 minutes, 5× CMC) and at least 4.22 ± 0.41 with xMuLV [3] (15° C., 30 minutes, 5× CMC). Moreover, in the data set with xMuLV [3] (between 30 seconds and 30 minutes, temperatures as low as 5° C. and 15° C.), the “Viral inactivation in the presence of therapeutic modalities” value is listed as “complete viral inactivation”. Also, the “Inactivation at 30 minutes at both 5° C. and 15° C.” value in the data set on xMuLV [3] (mAb, BiTE ®, fusion protein matrices) is given as “complete inactivation”.

For `CCCCCCCCCCCCCOC1OC(CO)C(OC2OC(CO)C(O)C(O)C2O)C(O)C1O` [n-Tridecyl-β-D-maltoside], the CMC in data set [1] is listed as 0.033 mM.

On to `CCCCCCCCCCCO[C@@H]1O[C@H](CO)[C@@H](O[C@H]2O[C@H](CO)[C@@H](O)[C@H](O)[C@H]2O)[C@H](O)[C@H]1O` [n-Undecyl-b-D-maltoside], for which, in data set [1], the CMC is listed as 0.59 mM.

Consider `CCCCCCCCCCCCOCCOCCOCCOCCOCCOCCOCCOCCOCCOCCO` [Anapoe C12E10], for which the “Viral inactivation towards xMuLV (CPE)” value with xMuLV [5] was “did not”.

For the compound `CCCCCCCCCCCC(=O)OC[C@@H](O)COP(=O)([O-])OCC[N+](C)(C)C` [LysoFos ™ Choline 12], the CMC in data set [1] is recorded as 0.7 mM.

In the case of `CCCCCCCNC(=O)OC[C@H]1O[C@H](OC)[C@H](O)[C@@H](O)[C@@H]1O` [HECAMEG ®], the CMC in data set [1] is 19.5 mM.

In the case of `CCCCCCCCCS[C@@H]1O[C@H](CO)[C@@H](O[C@H]2O[C@H](CO)[C@@H](O)[C@H](O)[C@H]2O)[C@H](O)[C@H]1O` [n-Nonyl-b-D-thiomaltoside], in data set [1], the CMC is on record as 3.2 mM.

On to `CCCCCCCCCCCCO[C@@H]1O[C@H](CO)[C@@H](O[C@H]2O[C@H](CO)[C@@H](O)[C@H](O)[C@H]2O)[C@H](O)[C@H]1O` [n-Dodecyl-b-D-maltoside], for which the CMC in data set [1] is on record as 0.17 mM.

`CCCCCCCCCCOCCOCCOCCOCCOCCOCCOCCOCCOCCO` [Anapoe C10E9]: in the data set with xMuLV [5], the “Viral inactivation towards xMuLV (CPE)” value is on record as “did not”.

Regarding `OC[C@H]1O[C@H](O[C@H]2[C@H](O)[C@@H](O)[C@H](OCCCCCCC3CCCCC3)O[C@@H]2CO)[C@H](O)[C@@H](O)[C@@H]1O` [CYMAL ®-6, 6-cyclohexyl-1-hexyl-β-D-maltoside], the CMC in data set [1] is 0.56 mM.

Turning to `CCCCCCCC(=O)N(C)C[C@H](O)[C@@H](O)[C@H](O)[C@H](O)CO` [MEGA-8], the CMC in data set [1] is 79 mM.

Turning to `CCCCCCCCC(=O)N(CCO)C[C@H](O)[C@@H](O)[C@H](O)[C@H](O)CO` [HEGA ®-9], the CMC in data set [1] was 39 mM.

On to `CCCCCCCCOCCOCCOCCOCCOCCO` [Detergent C8E5], for which, in data set [1], the CMC is reported as 7.1 mM.

As to `CCCCCCCCO[C@@H]1O[C@H](CO)[C@@H](O)[C@H](O)[C@H]1O` [n-Octyl-b-D-glucoside], the CMC in data set [1] is recorded as 20 mM.
